Values quoted from earlier work, collected in US12673027B2, “Method for the production of commercial nanoparticle and microparticle powders” (ICEUTICA PTY LTD., priority 2009, dated 2026).

Settings: absorption by the body

SMILES: Cc1cnc(NC(=O)C2=C(O)c3ccccc3S(=O)(=O)N2C)s1 [Meloxicam]
- Tmax: 4 to 5 h
